Reference: ChEMBL document CHEMBL4152338, “Design, synthesis and screening of 1, 2, 4-triazinone derivatives as potential antitumor agents with apoptosis inducing activity on MCF-7 breast cancer cell line” (Eur J Med Chem, 2018)
Calls of active or inactive are those of the source. The calls are words filed in the database; no cut-off is given here.

Assays:
[1] = test system: MCF7; assay: Upregulation of Bax level in human MCF7 cells at IC50 incubated for 24 hrs by ELISA relative to control; type: functional
[2] = test system: MCF7; assay: Cell cycle arrest in human MCF7 cells assessed as accumulation at G2 phase at IC50 after 24 hrs by propidium iodide staining-based flow cytometric analysis; type: functional
[3] = target: T1, DNA topoisomerase 2-beta (Homo sapiens, UniProt Q02880); assay: Inhibition of human DNA topoisomerase 2beta after 2 hrs by ELISA
[4] = test system: MCF7; assay: Upregulation of caspase3/7 level in human MCF7 cells at IC50 incubated for 24 hrs by green flow cytometric analysis relative to control; type: functional
[5] = test system: MCF7; assay: Inhibition of tubulin beta polymerization in human MCF7 cells at IC50 after 18 to 24 hrs by spectrophotometric method relative to control; type: cell-based
[6] = test system: MCF7; assay: Induction of apoptosis in human MCF7 cells assessed as viable cells at IC50 after 24 hrs by annexin V/FITC-propidium iodide staining-based flow cytometric method (reference value: 96.57%); type: functional
[7] = test system: MCF7; assay: Cell cycle arrest in human MCF7 cells assessed as decrease in accumulation at G1 phase at IC50 after 24 hrs by propidium iodide staining-based flow cytometric analysis; type: functional
[8] = test system: MCF7; assay: Upregulation of caspase3/7 level in human MCF7 cells at IC50 assessed as caspase 3/7 green fluorescence incubated for 24 hrs by green flow cytometric analysis (reference value: 0.49%); type: functional
[9] = test system: MCF7; assay: Induction of apoptosis in human MCF7 cells assessed as late apoptotic cells at IC50 after 24 hrs by annexin V/FITC-propidium iodide staining-based flow cytometric method (reference value: 0.34%); type: functional
[10] = test system: MCF7; assay: Induction of apoptosis in human MCF7 cells assessed as necrotic cells at IC50 after 24 hrs by annexin V/FITC-propidium iodide staining-based flow cytometric method (reference value: 0.53%); type: functional
[11] = test system: MCF7; assay: Antiproliferative activity against human MCF7 cells after 48 hrs by MTT assay; type: functional, cell-based; settings: MCF7, 48 h
[12] = test system: MCF7; assay: Cell cycle arrest in human MCF7 cells assessed as increase in accumulation at G0 phase at IC50 after 24 hrs by propidium iodide staining-based flow cytometric analysis; type: functional
[13] = test system: MCF7; assay: Potency index, ratio of podophyllotoxin IC50 to compound IC50 for human MCF7 cells; type: functional
[14] = test system: MCF7; assay: Potency index, ratio of ratio of compound effect to podophyllotoxin efect for induction of apoptosis in human MCF7 cells; type: functional
[15] = test system: MCF7; assay: Increase in Bax/Bcl-2 ratio in human MCF7 cells at IC50 incubated for 24 hrs by ELISA; type: functional, cell-based
[16] = test system: MCF7; assay: Potency index, ratio of ratio of compound effect to podophyllotoxin efect for cell cycle arrest in human MCF7 cells assessed as increase in cell percentage at G0 phase at IC50 after 24 hrs by propidium iodide staining-based flow cytometric analysis; type: functional
[17] = test system: MCF7; assay: Down regulation of Bcl-2 level in human MCF7 cells at IC50 incubated for 24 hrs by ELISA; type: functional, cell-based
[18] = target: T1, DNA topoisomerase 2-beta; assay: Potency index, ratio of etopside IC50 to compound IC50 for topoisomerase 2beta in human MCF7 cells; type: cell-based
[19] = test system: MCF7; assay: Upregulation of p53 level in human MCF7 cells at IC50 incubated for 24 hrs by ELISA relative to control; type: functional
[20] = Antiproliferative activity against human Hs 371.T cells after 48 hrs by MTT assay; type: cell-based
[21] = test system: MCF7; assay: Upregulation of p53 level in human MCF7 cells at IC50 incubated for 24 hrs by ELISA relative to podophyllotoxin; type: functional
[22] = test system: MCF7; assay: Induction of apoptosis in human MCF7 cells assessed as early apoptotic cells at IC50 after 24 hrs by annexin V/FITC-propidium iodide staining-based flow cytometric method (reference value: 0.72%); type: functional

T1 sequence (Q02880 whole entry): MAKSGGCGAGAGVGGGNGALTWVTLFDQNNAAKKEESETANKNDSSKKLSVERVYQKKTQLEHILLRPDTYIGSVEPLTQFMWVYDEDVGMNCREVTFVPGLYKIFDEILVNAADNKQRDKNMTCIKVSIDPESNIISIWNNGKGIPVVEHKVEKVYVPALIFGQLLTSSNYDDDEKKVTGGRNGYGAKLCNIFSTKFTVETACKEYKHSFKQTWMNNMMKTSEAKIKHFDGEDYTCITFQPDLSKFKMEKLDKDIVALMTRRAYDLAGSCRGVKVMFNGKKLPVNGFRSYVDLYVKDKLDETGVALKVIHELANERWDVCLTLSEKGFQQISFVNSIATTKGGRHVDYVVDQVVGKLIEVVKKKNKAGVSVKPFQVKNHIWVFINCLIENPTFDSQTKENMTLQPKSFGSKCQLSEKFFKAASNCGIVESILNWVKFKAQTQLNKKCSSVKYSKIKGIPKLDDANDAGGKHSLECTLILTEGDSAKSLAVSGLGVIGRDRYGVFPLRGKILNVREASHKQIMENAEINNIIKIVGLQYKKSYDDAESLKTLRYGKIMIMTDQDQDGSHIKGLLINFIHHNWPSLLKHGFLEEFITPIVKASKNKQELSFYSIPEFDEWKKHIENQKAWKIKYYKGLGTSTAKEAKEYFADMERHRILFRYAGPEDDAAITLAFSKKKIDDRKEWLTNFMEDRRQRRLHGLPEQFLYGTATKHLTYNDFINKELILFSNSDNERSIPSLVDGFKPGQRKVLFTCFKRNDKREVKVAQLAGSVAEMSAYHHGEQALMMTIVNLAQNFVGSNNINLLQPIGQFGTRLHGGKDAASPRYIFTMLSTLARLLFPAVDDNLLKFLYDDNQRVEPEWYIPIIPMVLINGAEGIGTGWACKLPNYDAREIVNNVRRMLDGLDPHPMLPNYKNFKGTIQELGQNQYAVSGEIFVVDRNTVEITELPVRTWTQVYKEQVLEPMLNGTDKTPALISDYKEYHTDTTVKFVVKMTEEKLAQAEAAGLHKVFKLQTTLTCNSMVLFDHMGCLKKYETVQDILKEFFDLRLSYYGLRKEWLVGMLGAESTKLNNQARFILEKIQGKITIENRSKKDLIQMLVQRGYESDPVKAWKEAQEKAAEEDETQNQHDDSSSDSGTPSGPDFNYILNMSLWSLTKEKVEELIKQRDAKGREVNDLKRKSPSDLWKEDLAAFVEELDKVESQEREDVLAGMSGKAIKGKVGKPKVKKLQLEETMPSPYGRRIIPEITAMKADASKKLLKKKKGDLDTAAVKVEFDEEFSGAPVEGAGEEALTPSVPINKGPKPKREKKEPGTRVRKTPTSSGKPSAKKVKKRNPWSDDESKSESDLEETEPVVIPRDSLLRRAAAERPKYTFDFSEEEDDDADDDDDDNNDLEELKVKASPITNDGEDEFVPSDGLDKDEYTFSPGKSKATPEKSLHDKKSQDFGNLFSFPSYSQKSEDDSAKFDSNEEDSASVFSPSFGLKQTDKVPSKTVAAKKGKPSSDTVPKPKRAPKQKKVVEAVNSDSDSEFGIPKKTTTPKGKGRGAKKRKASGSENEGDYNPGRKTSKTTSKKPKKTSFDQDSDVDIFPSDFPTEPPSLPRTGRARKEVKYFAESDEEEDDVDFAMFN

Row | SMILES | inhibition [5] [%] | Activity [8] [%] | Activity [9] [%] | Activity [10] [%] | IC50 [11] [µM] | IC50 [20] [µM] | Activity [22] [%] | further results
1 | COc1cc(C2=N/C(=C\c3cc(Br)cc(Br)c3OC(C)=O)C(=O)NN2c2ccccc2)cc(OC)c1OC | 33.4 | 11.28 | 7.85 | 3.14 | 0.35 | 44.3 | 5.47 | fold change (FC) [1]: 3.9; Activity [2]: Active; IC50 [3]: 0.0126 µM; fold change (FC) [4]: 18; Activity [6]: 81.41%; Activity [7]: Active; Activity [12]: Active; Ratio IC50 [13]: 6; Ratio [14]: 1.5; Activity [15]: Active; Ratio [16]: 1.4; Activity [17]: Active; Ratio IC50 [18]: 5.3; fold change (FC) [19]: 1.9; fold change (FC) [21]: 2.1
2 | COc1ccc(C2=N/C(=C\c3cc(Br)cc(Br)c3OC(C)=O)C(=O)NN2c2ccccc2)cc1OC |  |  |  |  | 5.39 |  |  | 
3 | CC(=O)Oc1c(Br)cc(Br)cc1/C=C1\N=C(c2ccccc2)N(c2ncc(-c3ccccc3)s2)NC1=O |  |  |  |  | 38.3 |  |  | 
4 | COc1cc(C2=N/C(=C\c3cc(Br)cc(Br)c3OC(C)=O)C(=O)NN2c2ncc(-c3ccc(Br)cc3)s2)cc(OC)c1OC |  |  |  |  | 3.16 |  |  | 
5 | COc1ccc(C2=N/C(=C\c3cc(Br)cc(Br)c3OC(C)=O)C(=O)NN2C(N)=S)cc1OC |  |  |  |  | 13.4 |  |  | 
6 | CC(=O)Oc1c(Br)cc(Br)cc1/C=C(/NC(=O)c1ccccc1)C(=O)NNC(N)=S |  |  |  |  | 16.8 |  |  | 
7 | CC(=O)Oc1c(Br)cc(Br)cc1/C=C1\N=C(c2ccccc2)N(C(N)=S)NC1=O |  |  |  |  | 28.5 | 80.1 |  | 
8 | CC(=O)Oc1c(Br)cc(Br)cc1/C=C1\N=C(c2ccccc2)N(c2ncc(-c3ccc(Br)cc3)s2)NC1=O |  |  |  |  | 9.49 |  |  | 
9 | CC(=O)Oc1c(Br)cc(Br)cc1/C=C1\N=C(c2ccccc2)n2c(=S)nc(C)n2C1=O |  |  |  |  | > 100 |  |  | 
10 | COc1ccc(C(=O)N/C(=C/c2cc(Br)cc(Br)c2OC(C)=O)C(=O)NNC(N)=S)cc1OC |  |  |  |  | 8.97 |  |  | 
11 | COc1cc(C2=N/C(=C\c3cc(Br)cc(Br)c3OC(C)=O)C(=O)NN2c2ncc(-c3ccccc3)s2)cc(OC)c1OC | 55.2 | 7.79 | 6.33 | 3.31 | 0.41 | 77.4 | 3.64 | fold change (FC) [1]: 3.4; Activity [2]: Active; IC50 [3]: 0.00685 µM; fold change (FC) [4]: 15.6; Activity [6]: 84.46%; Activity [7]: Active; Activity [12]: Active; Ratio IC50 [13]: 6; Activity [15]: Active; Activity [17]: Active; Ratio IC50 [18]: 10.2; fold change (FC) [19]: 9.2; fold change (FC) [21]: 1.75
12 | COc1cc([C@@H]2c3cc4c(cc3[C@H](O)[C@H]3COC(=O)[C@H]23)OCO4)cc(OC)c1OC [PODOFILOX] | 96.3 | 7.58 | 7.02 | 2.06 | 2.21 | 22.4 | 4.19 | Activity [6]: 84.61%
13 | CC(=O)Oc1c(Br)cc(Br)cc1/C=C1\N=C(c2ccccc2)N(c2ccccc2)NC1=O |  |  |  |  | 19.4 |  |  | 
14 | COc1cc(C2=N/C(=C\c3cc(Br)cc(Br)c3OC(C)=O)C(=O)n3c(C)nc(=S)n32)cc(OC)c1OC | 88.2 | 7.58 | 4.53 | 1.73 | 3.07 | 58.7 | 3.38 | fold change (FC) [1]: 0.9; IC50 [3]: 0.11 µM; fold change (FC) [4]: 31.3; Activity [6]: 88.4%; Activity [17]: Active; fold change (FC) [19]: 5.1
15 | COc1ccc(C2=N/C(=C\c3cc(Br)cc(Br)c3OC(C)=O)C(=O)NN2c2ncc(-c3ccccc3)s2)cc1OC |  |  |  |  | 4.33 |  |  | 
16 | COc1cc(C(=O)N/C(=C/c2cc(Br)cc(Br)c2OC(C)=O)C(=O)NNC(N)=S)cc(OC)c1OC | 62.3 | 6.91 | 5.62 | 2.11 | 2.85 |  | 4.66 | fold change (FC) [1]: 2.2; IC50 [3]: 0.0814 µM; fold change (FC) [4]: 24.1; Activity [15]: Active; Activity [17]: Active; fold change (FC) [19]: 4.2
17 | COc1ccc(C2=N/C(=C\c3cc(Br)cc(Br)c3OC(C)=O)C(=O)NN2c2ncc(-c3ccc(Br)cc3)s2)cc1OC |  |  |  |  | 3.28 |  |  | 
18 | COc1cc(C2=N/C(=C\c3cc(Br)cc(Br)c3OC(C)=O)C(=O)NN2C(N)=S)cc(OC)c1OC | 44.4 | 8.69 | 10.88 | 3.66 | 0.36 | 61.3 | 4.78 | fold change (FC) [1]: 3.2; Activity [2]: Active; IC50 [3]: 0.0317 µM; fold change (FC) [4]: 21.6; Activity [6]: 78.79%; Activity [7]: Active; Activity [12]: Active; Ratio IC50 [13]: 6; Ratio [14]: 1.25; Activity [15]: Active; Activity [17]: Active; Ratio IC50 [18]: 2.2; fold change (FC) [19]: 8.1; fold change (FC) [21]: 1.7
19 | COc1ccc(C2=N/C(=C\c3cc(Br)cc(Br)c3OC(C)=O)C(=O)n3c(C)nc(=S)n32)cc1OC |  |  |  |  | 6.84 |  |  | 
